PMC9596378, “Discovery and molecular basis of subtype-selective cyclophilin inhibitors” (Nature Chemical Biology, 2022)
Several values for one entry are separate records, joined by “and”; a condition that tells them apart may be missing. Equal entries are not always repeated. Where two headings read alike, the source gives them in different places.

Experiments:
CypD = CypD (Homo sapiens, UniProt P30405); assay: Chymotrypsin coupled prolyl-isomerase assay;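 as to CypD prolyl-isomerase raw dose-response reading (Fig. 6c): observed rate constant per well from one-phase association fit in s−1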
CypD, sequence (P30405 45-207): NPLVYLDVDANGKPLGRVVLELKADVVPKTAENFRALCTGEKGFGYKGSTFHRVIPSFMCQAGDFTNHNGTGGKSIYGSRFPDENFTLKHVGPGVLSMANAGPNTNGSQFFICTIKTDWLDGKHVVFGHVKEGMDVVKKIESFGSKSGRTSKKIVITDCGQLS

CypB = biological target: T1, CypB (Homo sapiens, UniProt P23284); assay: biochemical;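 as to CypB prolyl-isomerase raw dose-response reading (Fig. 6c): observed rate constant per well from one-phase association fit in s−1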
T1 construct: PPIB (UniProtKB Entry P23284: residues 34–216); His6 with TEV site (2BT vector leader) (N); made in house; host or cells: E. coli BL21(DE3)
T1 sequence (P23284 34-216): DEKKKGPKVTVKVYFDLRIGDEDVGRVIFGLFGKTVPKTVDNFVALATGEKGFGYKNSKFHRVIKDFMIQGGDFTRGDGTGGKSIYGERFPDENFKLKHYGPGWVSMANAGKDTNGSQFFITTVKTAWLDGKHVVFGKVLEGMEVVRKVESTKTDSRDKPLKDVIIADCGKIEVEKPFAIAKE
Summary of the method: (§1)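 Steps: cyclophilin plus compound 5 min at 2–3 °C; α-chymotrypsin added, 5 min more; Suc-AAPF-AMC substrate in LiCl/trifluoroethanol injected and fluorescence followed 330 s. Finals: 5 nM enzyme, 25 µM chymotrypsin, 5 µM substrate, 0.25% DMSO.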

Cyp40 = Cyp40 (Homo sapiens, UniProt Q08752); assay: Chymotrypsin coupled prolyl-isomerase assay;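 as to Cyp40 prolyl-isomerase raw dose-response reading (Fig. 6c): observed rate constant per well from one-phase association fit in s−1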
Cyp40, sequence (Q08752 1-183): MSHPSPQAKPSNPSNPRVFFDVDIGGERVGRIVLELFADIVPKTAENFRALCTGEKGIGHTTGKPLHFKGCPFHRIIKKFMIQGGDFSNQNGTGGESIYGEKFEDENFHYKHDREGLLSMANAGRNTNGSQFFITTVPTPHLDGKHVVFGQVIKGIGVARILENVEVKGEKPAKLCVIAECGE
Summary of the method: as §1

NKTR = biological target: T2, NKTR (Homo sapiens, UniProt P30414); assay: Chymotrypsin coupled prolyl-isomerase assay; format: biochemical;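 as to NKTR prolyl-isomerase raw dose-response reading (Fig. 6c): Per-well observed rate constant from one-phase association fit in s−1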
T2 construct: NKTR (UniProtKB Entry P30414: residues 7–179); host or cells: E. coli BL21(DE3)
T2 sequence (P30414 7-179): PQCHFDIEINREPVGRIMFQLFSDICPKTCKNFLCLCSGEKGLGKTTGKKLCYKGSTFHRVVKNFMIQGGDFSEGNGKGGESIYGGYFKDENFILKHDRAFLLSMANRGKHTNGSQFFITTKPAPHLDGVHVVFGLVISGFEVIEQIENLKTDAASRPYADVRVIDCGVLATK

PPIL1 = biological target: T3, PPIL1 (Homo sapiens, UniProt Q9Y3C6); assay: Chymotrypsin coupled prolyl-isomerase assay; format: biochemical;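 as to PPIL1 prolyl-isomerase raw dose-response reading (Fig. 6c): Per-well observed rate constant from one-phase association fit in s−1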
T3 construct: PPIL1 (UniProtKB Entry Q9Y3C6: residues 1–166); made in house; host or cells: E. coli BL21(DE3)
T3 sequence (Q9Y3C6 1-166): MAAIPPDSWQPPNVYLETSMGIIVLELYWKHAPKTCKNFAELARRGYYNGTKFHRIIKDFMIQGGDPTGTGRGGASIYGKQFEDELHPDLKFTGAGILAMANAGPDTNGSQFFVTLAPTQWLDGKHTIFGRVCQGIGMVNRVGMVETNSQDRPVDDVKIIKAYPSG

PPWD1 = biological target: T4, PPWD1 (Homo sapiens, UniProt Q96BP3); assay: Chymotrypsin coupled prolyl-isomerase assay; format: biochemical;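 as to PPWD1 prolyl-isomerase raw dose-response reading (Fig. 6c): Per-well observed rate constant from one-phase association fit in s−1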
T4 construct: PPWD1 (UniProtKB Entry Q96BP3: residues 473–646); host or cells: E. coli BL21(DE3)
T4 sequence (Q96BP3 473-646): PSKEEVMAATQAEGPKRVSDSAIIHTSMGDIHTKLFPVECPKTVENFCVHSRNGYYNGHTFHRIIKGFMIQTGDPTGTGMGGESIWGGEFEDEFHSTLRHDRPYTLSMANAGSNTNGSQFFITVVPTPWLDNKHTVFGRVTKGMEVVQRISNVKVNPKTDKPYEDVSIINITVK
Protocol: Five microliters of compound pre-dissolved in 5% DMSO/assay buffer was then added to appropriate wells and incubated at 2–3 °C for 5 min. Five microliters of 0.5 mM α-chymotrypsin from bovine pancreas (Type II, lyophilized powder, Millipore-Sigma) in 20% 1 mM HCl/Assay Buffer was then added to each well and incubated at 2–3 °C for 5 min. The plate was then quickly transferred to a FLIPR Tetra High-Throughput Cellular Screening System (Molecular Devices). Using the internal liquid handling system of the FLIPR, 1 µL 0.5 mM Suc-AAPF-AMC (Chymotrypsin Substrate II, Millipore-Sigma) dissolved in 0.55 M LiCl/2,2,2-trifluoroethanol was added to each well, which was then mixed for 5 s, followed by immediate fluorescence measurements every 1 s for 330 s using a 360–380 nm excitation LED module and a 400–460 nm emission filter. […] Raw fluorescence data was analyzed by non-linear regression analysis with Prism v.9 by fitting one-phase association curves to each well. Analyses were halted after the calculated maximum fluorescent value owing to observed fluorescent bleaching during the sustained fluorescent plateau. Rate constants calculated for each well (s^−1) were then normalized to substrate only (no prolyl-isomerase) and enzyme + substrate only controls.

NC(=O)C1CCNC(=O)C=CC(=O)N2CCCC(Cc3ccccc3)(C2)C(=O)NC(Cc2ccc(-c3ccc(C=O)c(B(O)O)c3)cc2)C(=O)NCc2ccccc2CC(=O)N1 (stereo not shown) [Compound C3A]
IC50 (CypD): 600 ± 100 nM
CypD prolyl-isomerase raw dose-response reading (Fig. 6c) (CypD; Dose 0.00114312 µM): 0.06909 and 0.06564 and 0.08467
CypD prolyl-isomerase raw dose-response reading (Fig. 6c) (CypD; Dose 0.00342936 µM): 0.0763 and 0.06566 and 0.07012
CypD prolyl-isomerase raw dose-response reading (Fig. 6c) (CypD; Dose 0.00457247 µM): 0.04911 and 0.0434 and 0.06663 and 0.05943 and 0.05791 and 0.04481
CypD prolyl-isomerase raw dose-response reading (Fig. 6c) (CypD; Dose 0.0102881 µM): 0.06833 and 0.05597 and 0.06694
CypD prolyl-isomerase raw dose-response reading (Fig. 6c) (CypD; Dose 0.0308642 µM): 0.07034 and 0.05622 and 0.06
CypD prolyl-isomerase raw dose-response reading (Fig. 6c) (CypD; Dose 0.0411523 µM): 0.05515 and 0.05553 and 0.04718 and 0.06514 and 0.05753 and 0.05809 and 0.04157
CypD prolyl-isomerase raw dose-response reading (Fig. 6c) (CypD; Dose 0.0925926 µM): 0.06297 and 0.05517 and 0.06275
CypD prolyl-isomerase raw dose-response reading (Fig. 6c) (CypD; Dose 0.277778 µM): 0.05848 and 0.04977 and 0.05604
CypD prolyl-isomerase raw dose-response reading (Fig. 6c) (CypD; Dose 0.833333 µM): 0.04291 and 0.04333 and 0.04298
CypD prolyl-isomerase raw dose-response reading (Fig. 6c) (CypD; Dose 2.5 µM): 0.03189 and 0.02949 and 0.03114
IC50 (CypD; IC50 CypD, Independent replicate 1, mean±SEM of 3 technical replicates): 700 ± 300 nM
IC50 (CypD; IC50 CypD, Independent replicate 2): 600 ± 300 nM
IC50 (CypD; IC50 CypD, Independent replicate 3): 410 ± 80 nM
IC50 (CypD; IC50 CypD, Independent replicate 4): ~700 nM
IC50 (CypD; Wild-Type Cyclophilin Prolyl Isomerase Inhibition IC50 Values, CypD, wild-type CypD): 600 nM
CypB prolyl-isomerase raw dose-response reading (Fig. 6c) (CypB; Dose 0.00114312 µM): 0.06934 and 0.06783 and 0.08183
CypB prolyl-isomerase raw dose-response reading (Fig. 6c) (CypB; Dose 0.00342936 µM): 0.07621 and 0.06975 and 0.07172
CypB prolyl-isomerase raw dose-response reading (Fig. 6c) (CypB; Dose 0.0102881 µM): 0.07116 and 0.04746 and 0.08093
CypB prolyl-isomerase raw dose-response reading (Fig. 6c) (CypB; Dose 0.0308642 µM): 0.07891 and 0.06745 and 0.0815
CypB prolyl-isomerase raw dose-response reading (Fig. 6c) (CypB; Dose 0.0925926 µM): 0.06054 and 0.05873 and 0.07182
CypB prolyl-isomerase raw dose-response reading (Fig. 6c) (CypB; Dose 0.277778 µM): 0.07925 and 0.05977 and 0.05725
CypB prolyl-isomerase raw dose-response reading (Fig. 6c) (CypB; Dose 0.833333 µM): 0.07516 and 0.05333 and 0.06224
CypB prolyl-isomerase raw dose-response reading (Fig. 6c) (CypB; Dose 2.5 µM): 0.05113 and 0.04833 and 0.05428
IC50 (CypB; Independent replicate 1, read-out: IC50 CypB): ~3 µM
IC50 (CypB; Independent replicate 2, read-out: IC50 CypB): 7 ± 3 µM
IC50 (CypB; Independent replicate 3, read-out: IC50 CypB): 3 ± 1 µM
IC50 (CypB; Independent replicate 4, read-out: IC50 CypB): 3 ± 2 µM
IC50 (CypB; wild-type CypB, read-out: Wild-Type Cyclophilin Prolyl Isomerase Inhibition IC50 Values, CypB): 4 µM
Cyp40 prolyl-isomerase raw dose-response reading (Fig. 6c) (Cyp40; Dose 0.00457247 µM): 0.0614 and 0.06993 and 0.05711
Cyp40 prolyl-isomerase raw dose-response reading (Fig. 6c) (Cyp40; Dose 0.0137174 µM): 0.05865 and 0.05903 and 0.06506
Cyp40 prolyl-isomerase raw dose-response reading (Fig. 6c) (Cyp40; Dose 0.0411523 µM): 0.05035 and 0.06856 and 0.04615
Cyp40 prolyl-isomerase raw dose-response reading (Fig. 6c) (Cyp40; Dose 0.123457 µM): 0.06664 and 0.05611 and 0.06364
Cyp40 prolyl-isomerase raw dose-response reading (Fig. 6c) (Cyp40; Dose 0.37037 µM): 0.05889 and 0.05946 and 0.05108
Cyp40 prolyl-isomerase raw dose-response reading (Fig. 6c) (Cyp40; Dose 1.11111 µM): 0.05961 and 0.05287 and 0.0489
Cyp40 prolyl-isomerase raw dose-response reading (Fig. 6c) (Cyp40; Dose 3.33333 µM): 0.034 and 0.04378 and 0.03695
Cyp40 prolyl-isomerase raw dose-response reading (Fig. 6c) (Cyp40; Dose 10 µM): 0.03483 and 0.03698 and 0.03412
IC50 (Cyp40; IC50 Cyp40, Independent replicate 1): 3000 ± 1000 nM
IC50 (Cyp40; IC50 Cyp40, Independent replicate 2): 1400 ± 500 nM
IC50 (Cyp40; IC50 Cyp40, Independent replicate 3): 1400 ± 300 nM
IC50 (Cyp40; IC50 Cyp40, Independent replicate 4): 1900 ± 500 nM
IC50 (Cyp40; Wild-Type Cyclophilin Prolyl Isomerase Inhibition IC50 Values, Cyp40, wild-type Cyp40): 1800 nM
NKTR prolyl-isomerase raw dose-response reading (Fig. 6c) (NKTR; Dose 0.00457247 µM): 0.03021 and 0.03304 and 0.03422
NKTR prolyl-isomerase raw dose-response reading (Fig. 6c) (NKTR; Dose 0.0137174 µM): 0.0282 and 0.04075 and 0.02833
NKTR prolyl-isomerase raw dose-response reading (Fig. 6c) (NKTR; Dose 0.0411523 µM): 0.03114 and 0.03658 and 0.02835
NKTR prolyl-isomerase raw dose-response reading (Fig. 6c) (NKTR; Dose 0.123457 µM): 0.03167 and 0.03382 and 0.0302
NKTR prolyl-isomerase raw dose-response reading (Fig. 6c) (NKTR; Dose 0.37037 µM): 0.03191 and 0.03367 and 0.02844
NKTR prolyl-isomerase raw dose-response reading (Fig. 6c) (NKTR; Dose 1.11111 µM): 0.03612 and 0.0297 and 0.03587
NKTR prolyl-isomerase raw dose-response reading (Fig. 6c) (NKTR; Dose 3.33333 µM): 0.03487 and 0.03208 and 0.0346
NKTR prolyl-isomerase raw dose-response reading (Fig. 6c) (NKTR; Dose 10 µM): 0.02874 and 0.02696 and 0.02891
IC50 (NKTR; Independent replicate 1, read-out: IC50 NKTR): > 10 µM
IC50 (NKTR; Independent replicate 2, read-out: IC50 NKTR): ~30 µM
IC50 (NKTR; Independent replicate 3, read-out: IC50 NKTR): ~30 µM
IC50 (NKTR; Independent replicate 4, read-out: IC50 NKTR): ~40 µM
IC50 (NKTR; wild-type NKTR, read-out: Wild-Type Cyclophilin Prolyl Isomerase Inhibition IC50 Values, NKTR): 33 µM
PPIL1 prolyl-isomerase raw dose-response reading (Fig. 6c) (PPIL1; Dose 0.00114312 µM): 0.05471 and 0.0599 and 0.05622
PPIL1 prolyl-isomerase raw dose-response reading (Fig. 6c) (PPIL1; Dose 0.00342936 µM): 0.05168 and 0.05762 and 0.07551
PPIL1 prolyl-isomerase raw dose-response reading (Fig. 6c) (PPIL1; Dose 0.00457247 µM): 0.05739 and 0.05515 and 0.06362 and 0.05346 and 0.05755 and 0.06002 and 0.05207 and 0.04334
PPIL1 prolyl-isomerase raw dose-response reading (Fig. 6c) (PPIL1; Dose 0.0102881 µM): 0.04812 and 0.0449 and 0.05106
PPIL1 prolyl-isomerase raw dose-response reading (Fig. 6c) (PPIL1; Dose 0.0308642 µM): 0.06685 and 0.05223 and 0.05525
PPIL1 prolyl-isomerase raw dose-response reading (Fig. 6c) (PPIL1; Dose 0.0925926 µM): 0.05203 and 0.04221 and 0.05411
PPIL1 prolyl-isomerase raw dose-response reading (Fig. 6c) (PPIL1; Dose 0.277778 µM): 0.04184 and 0.0372 and 0.04929
PPIL1 prolyl-isomerase raw dose-response reading (Fig. 6c) (PPIL1; Dose 0.833333 µM): 0.02447 and 0.02506 and 0.03512
PPIL1 prolyl-isomerase raw dose-response reading (Fig. 6c) (PPIL1; Dose 2.5 µM): 0.0232 and 0.01951 and 0.02784
IC50 (PPIL1; Independent replicate 1, read-out: IC50 PPIL1): 400 ± 200 nM
IC50 (PPIL1; Independent replicate 2, read-out: IC50 PPIL1): 500 ± 200 nM
IC50 (PPIL1; Independent replicate 3, read-out: IC50 PPIL1): 250 ± 60 nM
IC50 (PPIL1; Independent replicate 4, read-out: IC50 PPIL1): 360 ± 80 nM
IC50 (PPIL1; prolyl-isomerase inhibition, 5 nM cyclophilin, read-out: IC50 PPIL1): 400 ± 100 nM
IC50 (PPIL1; wild-type PPIL1, read-out: Wild-Type Cyclophilin Prolyl Isomerase Inhibition IC50 Values, PPIL1): 400 nM
PPWD1 prolyl-isomerase raw dose-response reading (Fig. 6c) (PPWD1; Dose 0.00457247 µM): 0.0469 and 0.04534 and 0.05629
PPWD1 prolyl-isomerase raw dose-response reading (Fig. 6c) (PPWD1; Dose 0.0137174 µM): 0.04565 and 0.04397 and 0.06065
PPWD1 prolyl-isomerase raw dose-response reading (Fig. 6c) (PPWD1; Dose 0.0411523 µM): 0.05156 and 0.0487 and 0.05013
PPWD1 prolyl-isomerase raw dose-response reading (Fig. 6c) (PPWD1; Dose 0.123457 µM): 0.04255 and 0.04648 and 0.048
PPWD1 prolyl-isomerase raw dose-response reading (Fig. 6c) (PPWD1; Dose 0.37037 µM): 0.04707 and 0.04395 and 0.05999
PPWD1 prolyl-isomerase raw dose-response reading (Fig. 6c) (PPWD1; Dose 1.11111 µM): 0.04661 and 0.0432 and 0.04546
PPWD1 prolyl-isomerase raw dose-response reading (Fig. 6c) (PPWD1; Dose 3.33333 µM): 0.03786 and 0.03919 and 0.04546
PPWD1 prolyl-isomerase raw dose-response reading (Fig. 6c) (PPWD1; Dose 10 µM): 0.02858 and 0.03234 and 0.0406
PPWD1 prolyl-isomerase raw dose-response reading (Fig. 6c) (PPWD1; Dose 16.6667 µM): 0.02581 and 0.0305 and 0.02503 and 0.03058 and 0.01822 and 0.02069 and 0.01922 and 0.02384
IC50 (PPWD1; Independent replicate 1, read-out: IC50 PPWD1): > 10 µM
IC50 (PPWD1; Independent replicate 2, read-out: IC50 PPWD1): 8 ± 4 µM
IC50 (PPWD1; Independent replicate 3, read-out: IC50 PPWD1): 6 ± 2 µM
IC50 (PPWD1; Independent replicate 4, read-out: IC50 PPWD1): 9 ± 3 µM
IC50 (PPWD1; prolyl-isomerase inhibition, 5 nM cyclophilin, read-out: IC50 PPWD1): 8 ± 2 µM
IC50 (PPWD1; wild-type PPWD1, read-out: Wild-Type Cyclophilin Prolyl Isomerase Inhibition IC50 Values, PPWD1): 8 µM
